The text below walks through data of patent US20260166128A1, “HUMAN AMYLIN ANALOG, AND DERIVATIVE THEREOF AND USE THEREOF” (priority 2022, published 2026).

The target of one data set is T1, human amylin receptor (Homo sapiens, UniProt O60896+P30988).
T1 construct: host or cells: CHO-K1/Ga15/AMY3 cells, further stably transfected with a CRE-luciferase plasmid
T1 sequence (P30988 25-474): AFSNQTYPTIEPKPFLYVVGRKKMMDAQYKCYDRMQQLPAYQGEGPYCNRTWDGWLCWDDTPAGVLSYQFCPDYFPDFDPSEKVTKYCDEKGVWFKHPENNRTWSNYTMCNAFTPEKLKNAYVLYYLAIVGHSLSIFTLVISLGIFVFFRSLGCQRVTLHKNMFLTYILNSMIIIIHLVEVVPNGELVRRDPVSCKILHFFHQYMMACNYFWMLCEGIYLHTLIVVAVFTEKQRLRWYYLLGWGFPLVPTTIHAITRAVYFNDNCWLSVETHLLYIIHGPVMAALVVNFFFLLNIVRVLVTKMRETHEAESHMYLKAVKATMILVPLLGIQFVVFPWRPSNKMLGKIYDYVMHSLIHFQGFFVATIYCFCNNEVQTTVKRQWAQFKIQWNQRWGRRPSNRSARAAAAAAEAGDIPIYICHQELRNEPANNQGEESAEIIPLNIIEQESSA
T1 sequence (O60896 24-148 partner): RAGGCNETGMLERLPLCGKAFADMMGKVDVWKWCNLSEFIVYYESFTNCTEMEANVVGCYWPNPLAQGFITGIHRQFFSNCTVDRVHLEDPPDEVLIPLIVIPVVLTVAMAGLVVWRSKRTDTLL
The data set can be described thus: Luciferase assay of amylin derivatives in amylin receptor/CRE-luc CHO cell line. Type of data set: cell-based. As to conditions: CHO-K1/Ga15/AMY3 CRE-luc cells, 24 hours incubation, F12 medium containing 10% FBS; read-out: EC50.

Data set [1] can be described thus: Freeze-thaw stability of derivatives (freeze-thaw yield by liquid chromatography). Type of data set: physicochemical. Particulars: for Dissolution property: appearance after dissolution at 0.2 mg/ml in 20 mM phosphate buffer solution (PB) (pH 7.0); for Freeze storage property: appearance after overnight storage at −20° C. and thawing to room temperature, 0.2 mg/ml in 20 mM PB (pH 7.0); for Freeze storage yield: concentration of polypeptide after freezing and thawing / concentration before, by liquid chromatography, −20° C. overnight. On the procedure:
The freeze-dried powder of the polypeptide analog derivative prepared in Example 1 was mixed with a buffer solution according to a mass-volume ratio of 0.2 mg/ml, the polypeptide was dissolved with 20 mM phosphate buffer solution (PB) (pH 7.0), the sample was stored at −20° C. for overnight storage, and then the sample was taken out to be restored to room temperature for thawing. During the experiment, property changes of the polypeptide after dissolution and freezing and thawing were observed and recorded respectively, and concentrations of the polypeptide before and after the freezing and thawing were detected by the following liquid chromatography method: Materials and equipment: high-performance liquid chromatographic instrument (Agilent 1200), ultrapure water (18.2 MΩ self-manufactured ultrapure water), acetonitrile (HPLC grade), and trifluoroacetic acid (HPLC grade); and reversed-phase chromatographic column: […] A sample to be tested was centrifuged at 10,000 rpm and 4° C. for 3 minutes, and a supernatant was taken and added into a liquid-phase sample injection bottle. […] A freeze-thaw yield was calculated by the following formula: freeze-thaw yield=concentration of polypeptide after the freezing and thawing/concentration of polypeptide before the freezing and thawing.

Numbered stars: 1 amine (or outer) side, 2 acyl side, 3 side chain; on linkers, the order of the positions; unused ones are H or OH. Bridge positions count the residues as written; N and C are the ends. Square brackets hold non-standard residues; d marks the D form. Side chains are listed from the residue outwards. Peptide text beside a SMILES is read from it. * marks the point of attachment. C20 diacid = O=C(O)CCCCCCCCCCCCCCCCCCC(=O)*; C18 diacid = O=C(O)CCCCCCCCCCCCCCCCC(=O)*; X1 = N[C@@H]1CCN([*:1])[C@@H]1C(=O)[*:2]; C16 diacid = O=C(O)CCCCCCCCCCCCCCC(=O)*; γGlu = O=C(O)[C@H](CCC(=O)[*:2])N[*:1]; C12 diacid = O=C(O)CCCCCCCCCCC(=O)*; Hyp = O=C(O)[C@@H]1C[C@@H](O)CN1; AEEA = NCCOCCOCC(=O)O

Procedure for human amylin receptor: The experiment was intended to detect the activity or efficacy of the amylin derivatives on a human amylin receptor in vitro by luciferase assay.
50 μL of growth medium (F12 medium containing 10% FBS) was added into each well of a white 96-well plate, and the stably transfected amylin/CRE-lue CHO cells were inoculated into the white 96-well plate at a density of about 20,000 cells/well for activity determination.

For the compound `CC[C@H](C)[C@H](NC(=O)[C@@H]1CCCN1C(=O)CNC(=O)[C@H](CC(C)C)NC(=O)[C@H](CC(N)=O)NC(=O)[C@H](CC(N)=O)NC(=O)[C@H](CCCCNC(=O)CC[C@H](NC(=O)CCCCCCCCCCCCCCCCC(=O)O)C(=O)O)NC(=O)[C@H](CO)NC(=O)[C@H](Cc1c[nH]cn1)NC(=O)[C@H](CCCNC(=N)N)NC(=O)[C@H](CC(C)C)NC(=O)[C@H](Cc1ccccc1)NC(=O)[C@H](CC(=O)O)NC(=O)[C@H](C)NC(=O)[C@H](CC(C)C)NC(=O)[C@H](CCCNC(=N)N)NC(=O)[C@H](CCC(N)=O)NC(=O)[C@@H](NC(=O)[C@H](C)NC(=O)[C@@H]1CSSC[C@H](NC(=O)[C@@H](N)CCCNC(=N)N)C(=O)N[C@@H](CC(N)=O)C(=O)N[C@@H]([C@@H](C)O)C(=O)N[C@@H](C)C(=O)N[C@@H]([C@@H](C)O)C(=O)N1)[C@@H](C)O)C(=O)N[C@@H](CC(C)C)C(=O)N1CCC[C@H]1C(=O)N1CCC[C@H]1C(=O)N[C@H](C(=O)N[C@@H](CC(N)=O)C(=O)N[C@H](C(=O)NCC(=O)N[C@@H](CO)C(=O)N[C@@H](CC(N)=O)C(=O)N[C@H](C(=O)N1C[C@H](O)C[C@H]1C(N)=O)[C@@H](C)O)C(C)C)[C@@H](C)O` [PD096] (H-RCNTATCATQRLADFLRHSK([γGlu-C18 diacid])NNLGPILPPTNVGSNT[Hyp]-NH2; disulfide 2-7), at human amylin receptor, the EC50 (in general, the concentration at which the effect is half-maximal) amounted to 0.042 nM.
The same measure, in the same setting: next, `CC[C@H](C)[C@H](NC(=O)[C@@H]1CCCN1C(=O)CNC(=O)[C@H](CC(C)C)NC(=O)[C@H](CCCCNC(=O)COCCOCCNC(=O)CC[C@H](NC(=O)CCCCCCCCCCCCCCCCC(=O)O)C(=O)O)NC(=O)[C@H](CC(N)=O)NC(=O)[C@H](CO)NC(=O)[C@H](CO)NC(=O)[C@H](Cc1c[nH]cn1)NC(=O)[C@H](CCCNC(=N)N)NC(=O)[C@H](CC(C)C)NC(=O)[C@H](Cc1ccccc1)NC(=O)[C@H](CC(=O)O)NC(=O)[C@H](C)NC(=O)[C@H](CC(C)C)NC(=O)[C@H](CCCNC(=N)N)NC(=O)[C@H](CCC(N)=O)NC(=O)[C@@H](NC(=O)[C@H](C)NC(=O)[C@@H]1CSSC[C@H](NC(=O)[C@@H](N)CCCNC(=N)N)C(=O)N[C@@H](CC(N)=O)C(=O)N[C@@H]([C@@H](C)O)C(=O)N[C@@H](C)C(=O)N[C@@H]([C@@H](C)O)C(=O)N1)[C@@H](C)O)C(=O)N[C@@H](CC(C)C)C(=O)N1CCC[C@H]1C(=O)N1CCC[C@H]1C(=O)N[C@H](C(=O)N[C@@H](CC(N)=O)C(=O)N[C@H](C(=O)NCC(=O)N[C@@H](CO)C(=O)N[C@@H](CC(N)=O)C(=O)N[C@H](C(=O)N1C[C@H](O)C[C@H]1C(N)=O)[C@@H](C)O)C(C)C)[C@@H](C)O` [PD113] (H-RCNTATCATQRLADFLRHSSNK([AEEA-γGlu-C18 diacid])LGPILPPTNVGSNT[Hyp]-NH2; disulfide 2-7): 0.017 nM.
Regarding `CC[C@H](C)[C@H](NC(=O)[C@@H]1CCCN1C(=O)CNC(=O)[C@H](CC(C)C)NC(=O)[C@H](CCCCNC(=O)CC[C@H](NC(=O)CCCCCCCCCCCCCCCCCCC(=O)O)C(=O)O)NC(=O)[C@H](CC(N)=O)NC(=O)[C@H](CO)NC(=O)[C@H](CO)NC(=O)[C@H](Cc1c[nH]cn1)NC(=O)[C@H](CCCNC(=N)N)NC(=O)[C@H](CC(C)C)NC(=O)[C@H](Cc1ccccc1)NC(=O)[C@H](CC(=O)O)NC(=O)[C@H](C)NC(=O)[C@H](CC(C)C)NC(=O)[C@H](CCCNC(=N)N)NC(=O)[C@H](CCC(N)=O)NC(=O)[C@@H](NC(=O)[C@H](C)NC(=O)[C@@H]1CSSC[C@H](NC(=O)[C@@H](N)CCCNC(=N)N)C(=O)N[C@@H](CC(N)=O)C(=O)N[C@@H]([C@@H](C)O)C(=O)N[C@@H](C)C(=O)N[C@@H]([C@@H](C)O)C(=O)N1)[C@@H](C)O)C(=O)N[C@@H](CC(C)C)C(=O)N1CCC[C@H]1C(=O)N1CCC[C@H]1C(=O)N[C@H](C(=O)N[C@@H](CC(N)=O)C(=O)N[C@H](C(=O)NCC(=O)N[C@@H](CO)C(=O)N[C@@H](CC(N)=O)C(=O)N[C@H](C(=O)N1C[C@H](O)C[C@H]1C(N)=O)[C@@H](C)O)C(C)C)[C@@H](C)O` [PD086] (H-RCNTATCATQRLADFLRHSSNK([γGlu-C20 diacid])LGPILPPTNVGSNT[Hyp]-NH2; disulfide 2-7), the EC50 at human amylin receptor was found to be 0.033 nM.
In the case of `CC[C@H](C)[C@H](NC(=O)[C@@H]1CCCN1C(=O)[C@H](CCCCNC(=O)CC[C@H](NC(=O)CCCCCCCCCCCCCCCCCCC(=O)O)C(=O)O)NC(=O)[C@H](CC(C)C)NC(=O)[C@H](CC(N)=O)NC(=O)[C@H](CC(N)=O)NC(=O)[C@H](CO)NC(=O)[C@H](CO)NC(=O)[C@H](Cc1c[nH]cn1)NC(=O)[C@H](CCCNC(=N)N)NC(=O)[C@H](CC(C)C)NC(=O)[C@H](Cc1ccccc1)NC(=O)[C@H](CCC(=O)O)NC(=O)[C@H](C)NC(=O)[C@H](CC(C)C)NC(=O)[C@H](CCCNC(=N)N)NC(=O)[C@H](CCC(N)=O)NC(=O)[C@@H](NC(=O)[C@H](C)NC(=O)[C@@H]1CSSC[C@H](NC(=O)[C@@H](N)CCCNC(=N)N)C(=O)N[C@@H](CC(N)=O)C(=O)N[C@@H]([C@@H](C)O)C(=O)N[C@@H](C)C(=O)N[C@@H]([C@@H](C)O)C(=O)N1)[C@@H](C)O)C(=O)N[C@@H](CC(C)C)C(=O)N1CCC[C@H]1C(=O)N1CCC[C@H]1C(=O)N[C@H](C(=O)N[C@@H](CC(N)=O)C(=O)N[C@H](C(=O)NCC(=O)N[C@@H](CO)C(=O)N[C@@H](CC(N)=O)C(=O)N[C@H](C(=O)N1CC[C@@H](N)[C@H]1C(N)=O)[C@@H](C)O)C(C)C)[C@@H](C)O` [PD061] (H-RCNTATCATQRLAEFLRHSSNNLK([γGlu-C20 diacid])PILPPTNVGSNT[X1]-NH2; disulfide 2-7; N-terminus assumed), in data set [1], the Dissolution property entry is “Clear”, the Freeze storage property entry is given as “Clear” and the Freeze storage yield was 100.32%.
Consider “PD151: KCNTATCATQRLADFLRHSSNNLKPILPPTNVGSNT-trans-Hyp-NH2; N-terminal, 1K-ϵ; γGlu + C16 diacid ({C16 diacid-γGlu}-K([γGlu-C16 diacid])CNTATCATQRLADFLRHSSNNLKPILPPTNVGSNT-{trans‑Hyp-NH2}; disulfide 2-7 (inferred))”, for which, in data set [1], the Dissolution property result is “Clear”, the Freeze storage property entry is given as “Clear” and the Freeze storage yield was 101.88%.
Regarding “PD149: KCNTATCATQRLADFLRHSSNNLKPILPPTNVGSNT-trans-Hyp-NH2; N-terminal, 1K-ϵ; γGlu + C12 diacid ({C12 diacid-γGlu}-K([γGlu-C12 diacid])CNTATCATQRLADFLRHSSNNLKPILPPTNVGSNT-{trans‑Hyp-NH2}; disulfide 2-7 (inferred))”, in data set [1], the Dissolution property result is listed as “Clear”, the Freeze storage property result is “Clear” and the Freeze storage yield worked out at 99.99%.
